Test results: US9073855B2, “BCL-2 selective apoptosis-inducing agents for the treatment of cancer and immune diseases” (AbbVie Inc., priority 2008, dated 2015)

Assays:
[1] = target: GST-Bcl-XL (Homo sapiens, UniProt Q07817); test: TR-FRET binding assay, GST-Bcl-XL with F-Bak peptide probe; details: TR-FRET Binding Affinity, GST-Bcl-XL, F-Bak peptide probe
Outline: (§1)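 Compounds were serially diluted in DMSO from a 50 μM starting solution (2× the starting concentration; 10% DMSO). Plates were incubated for 3 h at room temperature, and TR-FRET was read with 340/35 nm excitation and emission at 520/525 nm (F-Bak) and 495/510 nm (Tb antibody). Ki values were calculated using Wang's competitive-binding equation.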

[2] = target: GST-Bcl-2 (Homo sapiens, UniProt P10415); test: TR-FRET binding assay, GST-Bcl-2 with F-Bak peptide probe; details: for Ki: TR-FRET Binding Affinity, GST-Bcl-2, F-Bak peptide probe
Chain of GST-Bcl-2 (P10415 whole entry): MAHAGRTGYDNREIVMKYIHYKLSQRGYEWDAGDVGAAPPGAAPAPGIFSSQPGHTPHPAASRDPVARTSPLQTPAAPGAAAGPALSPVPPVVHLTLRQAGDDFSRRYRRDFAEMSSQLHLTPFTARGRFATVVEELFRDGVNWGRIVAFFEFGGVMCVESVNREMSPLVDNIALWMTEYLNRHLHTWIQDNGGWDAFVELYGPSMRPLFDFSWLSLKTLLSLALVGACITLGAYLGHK
Outline: as §1

[3] = system: FL5.12/Bcl-2 cells; test: FL5.12/Bcl-2 cell viability assay under IL-3 withdrawal (CellTitre Glo); assay type: cell-based, murine; details: Mus musculus, IL-3 withdrawn 48 hrs, then 24 hrs with compound
Outline: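 IL-3 withdrawal 48 hrs (no WEHI-3B medium), then compound 24 hrs, various concentrations; 37° C, 5% CO2; readout CellTitre Glo. Murine prolymphocytic FL5.12 stably overexpressing Bcl-2.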

Chain of GST-Bcl-XL (Q07817 whole entry): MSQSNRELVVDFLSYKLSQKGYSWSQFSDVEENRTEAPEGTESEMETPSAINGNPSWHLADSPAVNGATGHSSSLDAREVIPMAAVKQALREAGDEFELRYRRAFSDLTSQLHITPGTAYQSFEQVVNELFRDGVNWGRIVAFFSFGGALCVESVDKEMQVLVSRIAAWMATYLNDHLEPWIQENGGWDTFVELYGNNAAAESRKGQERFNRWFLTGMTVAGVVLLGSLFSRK

| Structure (SMILES) | Ki [1] | Ki [2] | EC50 [3] | Binding selectivity ratio (Bcl-XL Ki/Bcl-2 Ki) ([2]; ratio of TR-FRET Ki values, Bcl-XL over Bcl-2) |
| --- | --- | --- | --- | --- |
| CC1(C)CCC(CN2CCN(c3ccc(C(=O)NS(=O)(=O)c4ccc(NCC56CC7CC(C5)C(O)[C@H](C7)C6)c([N+](=O)[O-])c4)c(Oc4ccc5[nH]ccc5c4)c3)CC2)=C(c2ccc(Cl)cc2)C1 (stereo partly drawn) [Example 321, 4-(4-{[2-(4-chlorophenyl)-4,4-dimethylcyclohex-1-en-1-yl]methyl}piperazin-1-yl)-N-{[4-({[(3R)-4-hydroxy-1-adamantyl]methyl}amino)-3-nitrophenyl]sulfonyl}-2-(1H-indol-5-yloxy)benzamide] | > 660 nM | 0.689 nM | 29.1 nM | – |
| CC1(C)CCC(CN2CCN(c3ccc(C(=O)NS(=O)(=O)c4ccc(NCC56CC7CC(C5)C(O)C(C7)C6)c([N+](=O)[O-])c4)c(Oc4ccc5[nH]ccc5c4)c3)CC2)=C(c2ccc(Cl)cc2)C1 (stereo not drawn) [Example 322, 4-(4-{[2-(4-chlorophenyl)-4,4-dimethylcyclohex-1-en-1-yl]methyl}piperazin-1-yl)-N-{[4-({[Cis-4-hydroxy-1-adamantyl]methyl}amino)-3-nitrophenyl]sulfonyl}-2-(1H-indol-5-yloxy)benzamide] | > 660 nM | 0.184 nM | 44.5 nM | >3591.4 |
| CC1(C)CCC(CN2CCN(c3ccc(C(=O)NS(=O)(=O)c4ccc(NCCC(F)(F)F)c([N+](=O)[O-])c4)c(Oc4cccc5[nH]ccc45)c3)CC2)=C(c2ccc(Cl)cc2)C1 [Example 323, 4-(4-{[2-(4-chlorophenyl)-4,4-dimethylcyclohex-1-en-1-yl]methyl}piperazin-1-yl)-2-(1H-indol-4-yloxy)-N-({3-nitro-4-[(3,3,3-trifluoropropyl)amino]phenyl}sulfonyl)benzamide] | > 660 nM | 0.949 nM | 92.1 nM | – |
| CC1(C)CCC(CN2CCN(c3ccc(C(=O)NS(=O)(=O)c4ccc(NCCC(F)(F)F)c([N+](=O)[O-])c4)c(Oc4ccc5[nH]ccc5c4)c3)CC2)=C(c2ccc(Cl)cc2)C1 [Example 324, 4-(4-{[2-(4-chlorophenyl)-4,4-dimethylcyclohex-1-en-1-yl]methyl}piperazin-1-yl)-2-(1H-indol-5-yloxy)-N-({3-nitro-4-[(3,3,3-trifluoropropyl)amino]phenyl}sulfonyl)benzamide] | > 660 nM | 1.48 nM | 134 nM | – |
| CC1(C)CCC(CN2CCN(c3ccc(C(=O)NS(=O)(=O)c4cnc(NCC5CCOCC5)c(Br)c4)c(Oc4cccc5[nH]ccc45)c3)CC2)=C(c2ccc(Cl)cc2)C1 [Example 325, N-({5-bromo-6-[(tetrahydro-2H-pyran-4-ylmethyl)amino]pyridin-3-yl}sulfonyl)-4-(4-{[2-(4-chlorophenyl)-4,4-dimethylcyclohex-1-en-1-yl]methyl}piperazin-1-yl)-2-(1H-indol-4-yloxy)benzamide] | > 660 nM | 2.33 nM | 256 nM | – |
| CC1(C)CCC(CN2CCN(c3ccc(C(=O)NS(=O)(=O)c4ccc(NCC5CCS(=O)(=O)C5)c([N+](=O)[O-])c4)c(Oc4cccc5[nH]ccc45)c3)CC2)=C(c2ccc(Cl)cc2)C1 (stereo not shown) [Example 326, 4-(4-{[2-(4-chlorophenyl)-4,4-dimethylcyclohex-1-en-1-yl]methyl}piperazin-1-yl)-N-[(4-{[(1,1-dioxidotetrahydrothien-3-yl)methyl]amino}-3-nitrophenyl)sulfonyl]-2-(1H-indol-4-yloxy)benzamide] | > 660 nM | 0.116 nM | 35.1 nM | – |
| CC1(C)CCC(CN2CCN(c3ccc(C(=O)NS(=O)(=O)c4ccc(OCC5(F)CCOCC5)c([N+](=O)[O-])c4)c(Oc4ccc5[nH]ccc5c4)c3)CC2)=C(c2ccc(Cl)cc2)C1 [Example 327, 4-(4-{[2-(4-chlorophenyl)-4,4-dimethylcyclohex-1-en-1-yl]methyl}piperazin-1-yl)-N-({4-[(4-fluorotetrahydro-2H-pyran-4-yl)methoxy]-3-nitrophenyl}sulfonyl)-2-(1H-indol-5-yloxy)benzamide] | 95.6 nM | 0.031 nM | 6.57 nM | – |
| CNc1ccc(S(=O)(=O)NC(=O)c2ccc(N3CCN(CC4=C(c5ccc(Cl)cc5)CC(C)(C)CC4)CC3)cc2Oc2ccc3[nH]ccc3c2)cc1S(=O)(=O)C(F)(F)F [Example 328, 4-(4-{[2-(4-chlorophenyl)-4,4-dimethylcyclohex-1-en-1-yl]methyl}piperazin-1-yl)-2-(1H-indol-5-yloxy)-N-({4-(methylamino)-3-[(trifluoromethyl)sulfonyl]phenyl}sulfonyl)benzamide] | > 660 nM | 1.86 nM | > 500 nM | – |
| CC1(C)CCC(CN2CCN(c3ccc(C(=O)NS(=O)(=O)c4cnc(OCC5CCOCC5)c(Br)c4)c(Oc4ccc5[nH]ccc5c4)c3)CC2)=C(c2ccc(Cl)cc2)C1 [Example 329, N-{[5-bromo-6-(tetrahydro-2H-pyran-4-ylmethoxy)pyridin-3-yl]sulfonyl}-4-(4-{[2-(4-chlorophenyl)-4,4-dimethylcyclohex-1-en-1-yl]methyl}piperazin-1-yl)-2-(1H-indol-5-yloxy)benzamide] | > 660 nM | 0.285 nM | 127 nM | – |
| CC(C)Oc1cc(-c2ccc(Cl)cc2)c(CN2CCN(c3ccc(C(=O)NS(=O)(=O)c4ccc(NCC5CCOCC5)c([N+](=O)[O-])c4)c(Oc4ccc5[nH]ccc5c4)c3)CC2)cn1 [Example 330, 4-(4-{[4-(4-chlorophenyl)-6-isopropoxypyridin-3-yl]methyl}piperazin-1-yl)-2-(1H-indol-5-yloxy)-N-({3-nitro-4-[(tetrahydro-2H-pyran-4-ylmethyl)amino]phenyl}sulfonyl)benzamide] | > 660 nM | 74.9 nM | > 500 nM | – |
| CC1(C)CCC(CN2CCN(c3ccc(C(=O)NS(=O)(=O)c4cnc(OCC5CCOCC5)c(-c5nccs5)c4)c(Oc4ccc5[nH]ccc5c4)c3)CC2)=C(c2ccc(Cl)cc2)C1 [Example 331, 4-(4-{[2-(4-chlorophenyl)-4,4-dimethylcyclohex-1-en-1-yl]methyl}piperazin-1-yl)-2-(1H-indol-5-yloxy)-N-{[6-(tetrahydro-2H-pyran-4-ylmethoxy)-5-(1,3-thiazol-2-yl)pyridin-3-yl]sulfonyl}benzamide] | > 660 nM | 8.27 nM | > 500 nM | – |
| COCCNC(=O)c1ccc(S(=O)(=O)NC(=O)c2ccc(N3CCN(CC4=C(c5ccc(Cl)cc5)CC(C)(C)CC4)CC3)cc2Oc2ccc3[nH]ccc3c2)cc1 [Example 332, 4-(4-{[2-(4-chlorophenyl)-4,4-dimethylcyclohex-1-en-1-yl]methyl}piperazin-1-yl)-2-(1H-indol-5-yloxy)-N-[(4-{[(2-methoxyethyl)amino]carbonyl}phenyl)sulfonyl]benzamide] | > 660 nM | 12.6 nM | > 500 nM | – |
| CC1(C)CCC(CN2CCN(c3ccc(C(=O)NS(=O)(=O)c4cnc(OCC5CCOCC5)c(C#N)c4)c(Oc4ccc5[nH]ccc5c4)c3)CC2)=C(c2ccc(Cl)cc2)C1 [Example 333, 4-(4-{[2-(4-chlorophenyl)-4,4-dimethylcyclohex-1-en-1-yl]methyl}piperazin-1-yl)-N-{[5-cyano-6-(tetrahydro-2H-pyran-4-ylmethoxy)pyridin-3-yl]sulfonyl}-2-(1H-indol-5-yloxy)benzamide] | > 660 nM | 0.089 nM | 109 nM | – |
